Tests used:
Format in all cases: cell-based
[1] = test system: Corynebacterium glutamicum KCTC 1445; assay: MIC by broth dilution method; details: C. glutamicum, 37° C., 24 hours
[2] = test system: Vibrio parahaemolyticus KCTC 27; assay: Agar diffusion antibacterial test (aerobic); details: V. parahaemolyticus
[3] = test system: Clostridium perfringens KCCM 12098; details: C. perfringens; broth dilution, 37° C., 24 hours
[4] = test system: Bacteroides fragilis KCTC 3688; assay: MIC by broth dilution method; details: B. fragilis, 37° C., 24 hours
[5] = test system: Listeria monocytogenes KCTC 3569; assay: MIC by broth dilution method; details: L. monocytogenes, 37° C., 24 hours
[6] = test system: Shigella sonnei KCTC 2518; assay: MIC by broth dilution method; details: S. sonnei, 37° C., 24 hours
[7] = test system: Campylobacter jejuni KCTC 5327; assay: MIC by broth dilution method; details: C. jejuni, 37° C., 24 hours
[8] = test system: Shigella sonnei KCTC 2518; assay: Agar diffusion antibacterial test (aerobic); details: S. sonnei
[9] = test system: Clostridium dificile KCCM 12115; assay: Agar diffusion antibacterial test (anaerobic); details: C. difficile
[10] = test system: Moraxella catarrhalis KCCM 40056; assay: MIC by broth dilution method; details: M. catarrhalis, 37° C., 24 hours
[11] = test system: Bordetella bronchiseptica KCCM 21998; assay: Agar diffusion antibacterial test (aerobic); details: B. bronchiseptica
[12] = test system: Campylobacter jejuni KCTC 5327; assay: Agar diffusion antibacterial test (anaerobic); details: C. jejuni
[13] = test system: Bacteroides fragilis KCTC 3688; assay: Agar diffusion antibacterial test (anaerobic); details: B. fragilis
[14] = test system: Legionella pneumophila KCCM 41779; details: L. pneumophila; broth dilution, 37° C., 24 hours
[15] = test system: Shigella flexneri KCTC 2517; assay: Agar diffusion antibacterial test (aerobic); details: S. flexneri
[16] = test system: Bacillus subtilis KCTC 1021; assay: Agar diffusion antibacterial test (aerobic); details: B. subtilis
[17] = test system: Corynebacterium glutamicum KCTC 1445; assay: Agar diffusion antibacterial test (anaerobic); details: C. glutamicum
[18] = test system: Listeria monocytogenes KCTC 3569; assay: Agar diffusion antibacterial test (aerobic); details: L. monocytogenes
[19] = test system: Propionibacterium granulosum ATCC 25564; assay: MIC by broth dilution method; details: P. granulosum, 37° C., 24 hours
[20] = test system: Neisseria meningitidis KCCM 41562; assay: MIC by broth dilution method; details: N. meningitidis, 37° C., 24 hours
[21] = test system: Actiinobacillus ureae KCTC 2674; assay: MIC by broth dilution method; details: A. ureae, 37° C., 24 hours
[22] = test system: Yersinia enterocolitica KCCM 41657; assay: Agar diffusion antibacterial test (aerobic); details: Y. enterocolitica
[23] = test system: Helicobacter pylori KCTC 5335; assay: MIC by broth dilution method; details: H. pylori, 37° C., 24 hours
[24] = test system: Bordetella bronchiseptica KCCM 21998; assay: MIC by broth dilution method; details: B. bronchiseptica, 37° C., 24 hours
[25] = test system: Aeromonas salmonicida KCTC 12266; assay: Agar diffusion antibacterial test (aerobic); details: A. salmonicida
[26] = test system: Moraxella catarrhalis KCCM 40056; assay: Agar diffusion antibacterial test (aerobic); details: M. catarrhalis
[27] = test system: 8 anaerobic bacterial species; assay: Agar diffusion antibacterial test, overall (anaerobic); details: 8 anaerobic bacterial spp, agar diffusion
[28] = test system: Neisseria meningitidis KCCM 41562; assay: Agar diffusion antibacterial test (aerobic); details: N. meningitidis

Work on `C=C1C(=O)OC[C@H]1O` [S-(−)-tulipalin B, (4S)-4-hydroxy-3-methylene-oxolan-2-one] yielded an MIC [1] of 0.10%, an Inhibitory zone diameter ([2]; treatment concentration 0.01%) of 11 mm and an Inhibitory zone diameter ([2]; treatment concentration 0.03%) of 13 mm. The Inhibitory zone diameter ([2]; treatment concentration 0.1%) was 14 mm, the Inhibitory zone diameter ([2]; treatment concentration 0.3%) was 18 mm and the Inhibitory zone diameter ([2]; treatment concentration 1.0%) was 19 mm. The MIC [3] was 0.08%, the MIC [4] was 0.01% and the MIC [5] was 0.10%. The MIC [6] was 0.03%, the MIC [7] was 0.008% and the Inhibitory zone diameter ([8]; treatment concentration 0.03%) was 11 mm. For the same molecule, the Inhibitory zone diameter ([8]; treatment concentration 0.1%) was 12 mm, the Inhibitory zone diameter ([8]; treatment concentration 0.3%) was 17 mm and the Inhibitory zone diameter ([8]; treatment concentration 1.0%) was 19 mm. It also gave an Inhibitory zone diameter ([9]; treatment concentration 0.1%) of 10.5 mm, an Inhibitory zone diameter ([9]; treatment concentration 0.3%) of 13 mm and an Inhibitory zone diameter ([9]; treatment concentration 1.0%) of 13 mm. It also gave an MIC [10] of 0.03%, an Inhibitory zone diameter ([11]; treatment concentration 0.03%) of 12 mm and an Inhibitory zone diameter ([11]; treatment concentration 0.1%) of 14 mm. The Inhibitory zone diameter ([11]; treatment concentration 0.3%) was 18 mm, the Inhibitory zone diameter ([11]; treatment concentration 1.0%) was 20 mm and the Inhibitory zone diameter ([12]; treatment concentration 0.01%) was 11.5 mm. For the same molecule, the Inhibitory zone diameter ([12]; treatment concentration 0.03%) was 13 mm, the Inhibitory zone diameter ([12]; treatment concentration 0.1%) was 15 mm and the Inhibitory zone diameter ([12]; treatment concentration 0.3%) was 16 mm. For the same molecule, the Inhibitory zone diameter ([12]; treatment concentration 1.0%) was 18 mm, the Inhibitory zone diameter ([13]; treatment concentration 0.01%) was 10.5 mm and the Inhibitory zone diameter ([13]; treatment concentration 0.03%) was 12 mm. The Inhibitory zone diameter ([13]; treatment concentration 0.1%) was 14 mm, the Inhibitory zone diameter ([13]; treatment concentration 0.3%) was 16 mm and the Inhibitory zone diameter ([13]; treatment concentration 1.0%) was 18 mm. It also gave an MIC [14] of 0.03%, an Inhibitory zone diameter ([15]; treatment concentration 0.03%) of 10.5 mm and an Inhibitory zone diameter ([15]; treatment concentration 0.1%) of 13 mm. The Inhibitory zone diameter ([15]; treatment concentration 0.3%) was 18 mm, the Inhibitory zone diameter ([15]; treatment concentration 1.0%) was 19 mm and the Inhibitory zone diameter ([16]; treatment concentration 0.03%) was 11 mm. It also gave an Inhibitory zone diameter ([16]; treatment concentration 0.1%) of 13 mm, an Inhibitory zone diameter ([16]; treatment concentration 0.3%) of 15 mm and an Inhibitory zone diameter ([16]; treatment concentration 1.0%) of 17 mm. It also gave an Inhibitory zone diameter ([17]; treatment concentration 0.1%) of 10.5 mm, an Inhibitory zone diameter ([17]; treatment concentration 0.3%) of 11 mm and an Inhibitory zone diameter ([17]; treatment concentration 1.0%) of 12 mm. The Inhibitory zone diameter ([18]; treatment concentration 0.1%) was 11 mm, the Inhibitory zone diameter ([18]; treatment concentration 0.3%) was 13 mm and the Inhibitory zone diameter ([18]; treatment concentration 1.0%) was 16 mm. It also gave an MIC [19] of 0.03%, an MIC [20] of 0.01% and an MIC [21] of 0.03%. The Inhibitory zone diameter ([22]; treatment concentration 0.03%) was 11.5 mm, the Inhibitory zone diameter ([22]; treatment concentration 0.1%) was 13 mm and the Inhibitory zone diameter ([22]; treatment concentration 0.3%) was 17 mm. For the same molecule, the Inhibitory zone diameter ([22]; treatment concentration 1.0%) was 19 mm, the MIC [23] was 0.01% and the MIC [24] was 0.03%. The Inhibitory zone diameter ([25]; treatment concentration 0.01%) was 11 mm, the Inhibitory zone diameter ([25]; treatment concentration 0.03%) was 12 mm and the Inhibitory zone diameter ([25]; treatment concentration 0.1%) was 13 mm. For the same molecule, the Inhibitory zone diameter ([25]; treatment concentration 0.3%) was 17 mm, the Inhibitory zone diameter ([25]; treatment concentration 1.0%) was 19 mm and the Inhibitory zone diameter ([26]; treatment concentration 0.03%) was 11 mm. For the same molecule, the Inhibitory zone diameter ([26]; treatment concentration 0.1%) was 11 mm, the Inhibitory zone diameter ([26]; treatment concentration 0.3%) was 15 mm and the Inhibitory zone diameter ([26]; treatment concentration 1.0%) was 18 mm. For the same molecule, the Antibacterial effects [27] was “relatively high antibacterial effects”, the Inhibitory zone diameter ([28]; treatment concentration 0.03%) was 11 mm and the Inhibitory zone diameter ([28]; treatment concentration 0.1%) was 12 mm. For the same molecule, the Inhibitory zone diameter ([28]; treatment concentration 0.3%) was 16 mm and the Inhibitory zone diameter ([28]; treatment concentration 1.0%) was 18 mm.

Reference: patent US20080262082A1, “COMPOSITION CONTAINING S-(-)-TULIPALIN B OR ACETYLATED-S-(-)-TULIPALIN B” (BIO SPECTRUM, INC., priority 2007, published 2008)
